Measurements: ChEMBL document CHEMBL1201862, “PubChem BioAssay data set” (2004)
Active and inactive are the calls of the source.

Legend:
[1] = biological target: Paired box protein Pax-8 (Homo sapiens, UniProt Q06710); test: PAX8 transcriptional activity inhibition in RMG-I – RMG-I cells, luciferase, cherry-pick, dose response (AID 687027); assay type: functional, cell-based;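 also: luciferase reporter driven by Pax8 target thyroperoxidase promoter measured by SteadyGlo luminescence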
[2] = inhibitors acting on PAX2 in cells – cell-based, plate reader, dry powder samples, selectivity assay for PAX8 inhibitor project, dose response (AID 743048); assay type: functional;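 also: HEK293 cells carrying a WT1 promoter luciferase reporter driven by expressed Pax2; potency is for inhibition of Pax2 driven reporter signal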
[3] = COV362 cell viability loss – plate reader, dry powder, SA12, cytotoxicity control for PAX8 inhibitor project, dose response (AID 743144); assay type: functional, cell-based
[4] = OVCAR-3 cell viability loss – plate reader, dry powder samples, PAX8 inhibitor project, dose response (AID 743044); assay type: functional, cell-based
[5] = PAX5 cellular inhibition readout – cell-based, plate reader, dry powder samples, selectivity assay for PAX8 inhibitor project, dose response (AID 743047); assay type: functional;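 also: HEK293 cells carrying a Pax5 driven CD19 promoter luciferase reporter; potency of inhibitors that lower reporter luminescence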
[6] = COV434 cell viability loss – plate reader, dry powder, SA7, cytotoxicity control for PAX8 inhibitor project, dose response (AID 743145); assay type: functional, cell-based
[7] = OV-90 cell viability loss – plate reader, dry powder, SA8, PAX8 inhibitor project, dose response (AID 743149); assay type: functional, cell-based
[8] = PAX8-dependent cell viability loss – plate reader, dry powder, dose response (AID 743049); assay type: functional, cell-based
[9] = Trypanosoma cruzi replication inhibitors in host cells – cell-based, plate reader, dry powder samples, dose response (AID 651845); assay type: functional
[10] = anti-trypanosomal activity in BESM host cells – imaging, CA-I/72 strain, bovine embryo skeletal muscle, dry powder, dose response (AID 651885); assay type: functional, cell-based
[11] = biological target: Endoplasmic reticulum aminopeptidase 1 (Homo sapiens, UniProt Q9NZ08); test: inhibition of human ERAP1 enzyme activity – biochemical, cherry-pick, set 2, plate reader, dose response (AID 743314)
[12] = viability of PTEN-deleted HCT116 cells – cell-based, HCT116 PTEN knockout, dose response (AID 1047); assay type: functional;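 also: HCT116 colon tumor cells with PTEN knocked out; cells exposed to compound for 60 hours before readout; potency for loss of cell viability measured by luminescence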
[13] = viability of HCT116 lacking mutant beta-catenin – cell-based, human colon tumor, dose response (AID 1045); assay type: functional;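 also: HCT116 colon tumor cells with beta catenin knocked out; cells exposed to compound for 60 hours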
[14] = biological target: T1, Mannose-6-phosphate isomerase (Homo sapiens, UniProt P34949); test: MPI inhibition at elevated mannose 6-phosphate – biochemical, fluorescence intensity, high mannose 6-phosphate, primary screen (AID 1220)
T1 sequence (P34949 whole entry): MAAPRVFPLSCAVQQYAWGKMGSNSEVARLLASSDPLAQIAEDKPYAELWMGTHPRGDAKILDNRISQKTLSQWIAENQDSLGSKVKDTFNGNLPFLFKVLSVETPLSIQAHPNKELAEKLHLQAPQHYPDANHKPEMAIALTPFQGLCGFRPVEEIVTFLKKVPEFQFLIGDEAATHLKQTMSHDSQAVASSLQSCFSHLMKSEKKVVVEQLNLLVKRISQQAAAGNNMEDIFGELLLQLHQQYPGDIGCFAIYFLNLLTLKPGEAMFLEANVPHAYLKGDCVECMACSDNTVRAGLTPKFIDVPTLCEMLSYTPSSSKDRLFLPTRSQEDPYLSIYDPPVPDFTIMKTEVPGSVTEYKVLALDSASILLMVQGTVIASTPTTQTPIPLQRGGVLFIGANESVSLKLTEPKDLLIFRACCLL

[15] = biological target: T2, Coagulation factor XII (Homo sapiens, UniProt P00748); assay type: functional;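 also: activated factor XIIa alpha cleaving a fluorogenic AMC peptide substrate; inhibitor potency from loss of enzyme activity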
T2 sequence (P00748 whole entry): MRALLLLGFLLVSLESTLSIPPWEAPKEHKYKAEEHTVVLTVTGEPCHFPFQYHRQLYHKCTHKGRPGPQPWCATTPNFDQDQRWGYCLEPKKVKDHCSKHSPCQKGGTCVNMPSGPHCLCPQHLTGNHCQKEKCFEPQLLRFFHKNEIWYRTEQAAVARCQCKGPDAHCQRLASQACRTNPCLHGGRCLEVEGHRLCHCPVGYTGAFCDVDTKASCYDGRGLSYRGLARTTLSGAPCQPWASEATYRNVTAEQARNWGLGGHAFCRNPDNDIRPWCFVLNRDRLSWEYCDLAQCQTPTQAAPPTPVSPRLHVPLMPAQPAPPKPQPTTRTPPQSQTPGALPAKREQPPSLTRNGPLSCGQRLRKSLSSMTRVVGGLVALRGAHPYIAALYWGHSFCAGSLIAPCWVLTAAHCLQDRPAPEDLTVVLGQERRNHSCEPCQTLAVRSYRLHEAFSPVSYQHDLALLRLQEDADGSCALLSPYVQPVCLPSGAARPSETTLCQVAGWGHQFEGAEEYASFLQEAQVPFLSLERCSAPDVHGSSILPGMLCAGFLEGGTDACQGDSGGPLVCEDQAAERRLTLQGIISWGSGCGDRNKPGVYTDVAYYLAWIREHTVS

[16] = biological target: DNA damage-inducible transcript 3 protein (Mus musculus, UniProt P35639); assay type: functional, Cricetulus griseus
[17] = biological target: RNA-editing ligase 1, mitochondrial (Trypanosoma brucei brucei, UniProt P86926); test: inhibition of trypanosome RNA editing ligase – biochemical, fluorescence, Trypanosoma brucei, dose response (AID 1117295); assay type: functional
[18] = Dd2 parasite growth inhibition in erythrocytes – SYBR Green, dry powder samples, set 9, dose response (AID 1159568); assay type: functional, cell-based
[19] = biological target: T3, Oxysterols receptor LXR-beta (Homo sapiens, UniProt P55055); assay type: functional, cell-based;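 also: Cell-based luminescence dose-response assay of agonist activity at LXR, run as a confirmatory counterscreen to a daf-12 agonist screen; HEK293 cells with Gal4-LXR fusion and GAL4-driven luciferase reporter; agonist potency from rising luciferase signal of a Gal4-LXR reporter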
T3 sequence (P55055 whole entry): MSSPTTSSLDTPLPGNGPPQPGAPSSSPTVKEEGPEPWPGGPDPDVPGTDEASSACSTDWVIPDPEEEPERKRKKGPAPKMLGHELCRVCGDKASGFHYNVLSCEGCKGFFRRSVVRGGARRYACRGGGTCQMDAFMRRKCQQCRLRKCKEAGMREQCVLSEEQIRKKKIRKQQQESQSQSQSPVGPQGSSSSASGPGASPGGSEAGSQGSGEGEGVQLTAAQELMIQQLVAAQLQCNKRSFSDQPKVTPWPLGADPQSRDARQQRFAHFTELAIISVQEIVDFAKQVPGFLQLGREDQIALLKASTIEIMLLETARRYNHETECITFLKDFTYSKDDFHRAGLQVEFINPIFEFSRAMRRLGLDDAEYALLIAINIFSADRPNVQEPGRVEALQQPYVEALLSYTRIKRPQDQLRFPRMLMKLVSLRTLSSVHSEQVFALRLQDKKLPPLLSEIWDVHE

[20] = cells

Chain of RNA-editing ligase 1, mitochondrial (P86926 whole entry): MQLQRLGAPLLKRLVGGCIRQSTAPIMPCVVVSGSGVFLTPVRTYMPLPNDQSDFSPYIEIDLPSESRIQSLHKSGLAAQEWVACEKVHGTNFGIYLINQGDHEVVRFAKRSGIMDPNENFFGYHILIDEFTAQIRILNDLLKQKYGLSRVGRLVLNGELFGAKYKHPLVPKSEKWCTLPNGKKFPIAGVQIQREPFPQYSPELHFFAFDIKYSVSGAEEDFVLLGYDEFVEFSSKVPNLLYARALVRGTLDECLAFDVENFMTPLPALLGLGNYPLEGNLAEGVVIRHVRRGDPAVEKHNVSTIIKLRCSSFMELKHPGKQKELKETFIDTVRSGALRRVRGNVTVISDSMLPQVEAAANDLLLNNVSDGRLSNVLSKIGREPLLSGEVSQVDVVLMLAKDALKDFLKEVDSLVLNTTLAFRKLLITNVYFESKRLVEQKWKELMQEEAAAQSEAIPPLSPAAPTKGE
Chain of Endoplasmic reticulum aminopeptidase 1 (Q9NZ08 whole entry): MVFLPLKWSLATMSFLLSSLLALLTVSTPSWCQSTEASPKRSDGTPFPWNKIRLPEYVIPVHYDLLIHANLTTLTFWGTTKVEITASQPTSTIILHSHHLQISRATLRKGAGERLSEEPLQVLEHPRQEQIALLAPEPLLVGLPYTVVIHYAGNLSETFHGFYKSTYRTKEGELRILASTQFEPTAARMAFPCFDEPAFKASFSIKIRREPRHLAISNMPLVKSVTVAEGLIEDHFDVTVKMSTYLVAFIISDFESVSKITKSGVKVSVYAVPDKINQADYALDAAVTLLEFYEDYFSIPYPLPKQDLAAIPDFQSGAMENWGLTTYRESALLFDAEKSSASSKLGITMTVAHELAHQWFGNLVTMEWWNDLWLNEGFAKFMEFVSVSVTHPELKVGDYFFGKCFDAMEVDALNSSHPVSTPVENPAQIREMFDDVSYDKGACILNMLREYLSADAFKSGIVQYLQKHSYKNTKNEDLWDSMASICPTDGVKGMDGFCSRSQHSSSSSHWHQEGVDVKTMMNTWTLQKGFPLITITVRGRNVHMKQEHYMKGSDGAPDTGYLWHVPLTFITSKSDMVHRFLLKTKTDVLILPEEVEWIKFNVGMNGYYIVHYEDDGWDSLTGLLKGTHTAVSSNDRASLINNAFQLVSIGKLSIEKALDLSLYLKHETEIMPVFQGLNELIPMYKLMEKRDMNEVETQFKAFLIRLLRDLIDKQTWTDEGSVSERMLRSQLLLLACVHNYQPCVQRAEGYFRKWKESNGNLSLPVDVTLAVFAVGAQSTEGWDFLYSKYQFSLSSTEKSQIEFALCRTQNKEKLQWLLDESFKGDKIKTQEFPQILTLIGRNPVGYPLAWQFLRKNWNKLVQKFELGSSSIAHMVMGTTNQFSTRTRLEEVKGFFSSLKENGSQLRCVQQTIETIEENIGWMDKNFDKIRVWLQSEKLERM
Chain of Paired box protein Pax-8 (Q06710 whole entry): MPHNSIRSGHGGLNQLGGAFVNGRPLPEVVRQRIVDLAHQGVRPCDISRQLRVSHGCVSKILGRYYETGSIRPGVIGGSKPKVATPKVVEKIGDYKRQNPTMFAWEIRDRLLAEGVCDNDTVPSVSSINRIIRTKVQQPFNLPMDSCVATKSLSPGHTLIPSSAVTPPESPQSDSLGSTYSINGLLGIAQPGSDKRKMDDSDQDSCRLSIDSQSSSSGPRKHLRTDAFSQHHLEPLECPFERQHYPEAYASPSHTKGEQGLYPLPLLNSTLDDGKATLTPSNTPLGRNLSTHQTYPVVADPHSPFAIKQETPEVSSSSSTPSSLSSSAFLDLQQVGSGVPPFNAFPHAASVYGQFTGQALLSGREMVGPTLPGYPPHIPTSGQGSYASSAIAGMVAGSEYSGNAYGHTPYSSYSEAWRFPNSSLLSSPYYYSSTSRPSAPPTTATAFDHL
Chain of DNA damage-inducible transcript 3 protein (P35639 whole entry): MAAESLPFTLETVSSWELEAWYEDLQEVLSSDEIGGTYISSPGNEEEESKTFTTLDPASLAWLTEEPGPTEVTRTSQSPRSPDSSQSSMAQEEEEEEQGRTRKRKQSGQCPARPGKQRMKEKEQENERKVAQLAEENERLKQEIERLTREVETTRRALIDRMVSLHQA

Structure (SMILES): Cc1ccc(S(=O)(=O)Nc2ccc3c(c2)C(=O)N([C@@H](C)CO)C[C@H](C)[C@@H](CN(C)C(=O)Nc2cccc4ccccc24)OCCCC[C@@H](C)O3)cc1
- AC50 [1]: 4.15 µM (active)
- AC50 [2]: 7.25 µM (active)
- AC50 [3]: 37.3 µM (active)
- AC50 [4]: 13.3 µM (active)
- AC50 [5]: 8.21 µM (active)
- AC50 [6]: 0.0021 µM (active)
- AC50 [7]: 22.8 µM (active)
- AC50 [8]: 18.2 µM (active)

Structure (SMILES): C[C@@H]1CN([C@@H](C)CO)C(=O)c2cccc(NC(=O)c3ccncc3)c2O[C@H]1CN(C)Cc1ccccc1Cl
- AC50 [9]: 0.158 µM (active)
- IC50 [10]: 0.0114 µM (active)

Structure (SMILES): COc1ccc(S(=O)(=O)N(C)C[C@@H]2Oc3ncccc3C(=O)N([C@H](C)CO)C[C@@H]2C)cc1
- AC50 [11]: 8.41 µM (active)

Structure (SMILES): CCNC(=O)[C@H]1[C@H](CO)[C@H]2Cn3c(ccc(/C=C/c4ccccc4)c3=O)[C@@H]1N2C(=O)C1CCCC1
- AC50 [11]: 7.81 µM (active)

Structure (SMILES): COc1cc(C(=O)O/N=C2\C=CC(=O)C(C)=C2)cc(OC)c1OC
- EC50 [12]: 5.17 µM (active)
- EC50 [13]: 3.63 µM (active)
- IC50 [14]: > 50 µM (not active)
- IC50 [15]: 0.623 µM (active)
- Absolute IC50 (CHOP) [16]: 10 µM

Structure (SMILES): COC(=O)C1=C(C)N(Cc2cccc(C(F)(F)F)c2)C(NCc2cccc(C(F)(F)F)c2)=NC1c1ccccc1C(F)(F)F (stereo not drawn)
- IC50 [17]: > 96.6 µM (inactive)

Structure (SMILES): CCC(C)NC(=O)C1CCN(S(=O)(=O)c2ccc3[nH]c(=O)oc3c2)CC1 (stereo not drawn)
- IC50 [17]: 19.7 µM (inactive)

Structure (SMILES): C[C@H]1CN([C@@H](C)CO)C(=O)c2cccc(NC(=O)c3ccc(-c4nccs4)cc3)c2O[C@@H]1CN(C)C(=O)Nc1ccc(C(F)(F)F)cc1
- AC50 [18]: 9.87 µM (active)

Structure (SMILES): CCCNC(=O)N1[C@H](C#N)[C@H](c2ccccc2-c2ccc(OC)cc2)[C@@H]1CO
- AC50 [18]: 3.54 µM (active)

Structure (SMILES): Oc1cccc(-c2nnc(-c3cccc(O)c3)nn2)c1
- EC50 [19]: > 67.6 µM (inactive)
- EC50 [20]: > 67.6 µM (inactive)
